These results are taken from patent publication US10072025B2, “Ethyl N-boc piperidinyl pyrazolo pyridones as Janus kinase inhibitors” (Merck Sharp & Dohme Corp., priority 2014, dated 2018).

One assay concerns the target JAK1 (Homo sapiens (Human), UniProt P23458). The experiment in a line: Jak Biochemical HTRF Assay (JAK1). As to conditions: recombinant purified GST-tagged catalytic domain; HTRF; [ATP] 31.8 μM; [E] 1.405 nM. The procedure: (§1) Jak Biochemical HTRF Assay Protocol
(§2) The ability of compounds to inhibit the activity of JAK1, JAK2, JAK3, and Tyk2 was measured using a recombinant purified GST-tagged catalytic domain for each enzyme (Invitrogen JAK1 #M4290, JAK2 #M4290, JAK3 #M4290, Tyk2 #M4290) in an HTRF format biochemical assay. […] The basic assay protocol is as follows: First, 250 nL of diluted compounds in DMSO were dispensed into the wells of a dry 384-well Black plate (Greiner #781076) using a Labcyte Echo 555 acoustic dispenser. Subsequent reagent additions employed an Agilent Bravo. Next, 18 μL of 1.11× enzyme and 1.11× substrate in 1× assay buffer (Invitrogen kinase buffer # PV3189, 2 mM DTT, 0.05% BSA) were added to the wells and shaken and then preincubated for 30 minutes at room temperature to allow compound binding to equilibrate. After equilibration, 2 μL of 10×ATP in 1× assay buffer was added to initiate the kinase reaction and the plates were shaken and then incubated at room temperature for 120 minutes. At the end of the incubation, 20 μL of 2× stop buffer (streptavidin-Dylight 650 (Thermo #84547B/100 mL), Eu-tagged pY20 antibody (Perkin Elmer #AD0067), EDTA, HEPES, and Triton) was added to quench the reaction. Plates were shaken and centrifuged and then incubated 60 minutes at room temperature and then read on a Perkin Elmer Envision (Xex=337 nm, λem=665 and 615 nm, TRF delay time=20 μs). HTRF signal=10,000*665 nm reading/615 nm reading. After normalization to untreated controls, the percent inhibition of the HTRF signal at each compound concentration was calculated. The plot of percent inhibition versus the log of compound concentration was fit with a 4-parameter dose response equation to calculate IC50 values.

Another assay addresses JAK2 (Homo sapiens (Human), UniProt O60674). The experiment in a line: Jak Biochemical HTRF Assay (JAK2). The following applies: recombinant purified GST-tagged catalytic domain, [ATP] 8.5 μM, [E] 0.052 nM. The procedure: as §1, §2
Background: In TR-FRET formats the signal depends on donor and acceptor labels being close together.

Each structure is given as a SMILES string.

As a reminder, the IC50 is the concentration that gives 50% inhibition.

Chain of JAK2 (O60674 849-1124): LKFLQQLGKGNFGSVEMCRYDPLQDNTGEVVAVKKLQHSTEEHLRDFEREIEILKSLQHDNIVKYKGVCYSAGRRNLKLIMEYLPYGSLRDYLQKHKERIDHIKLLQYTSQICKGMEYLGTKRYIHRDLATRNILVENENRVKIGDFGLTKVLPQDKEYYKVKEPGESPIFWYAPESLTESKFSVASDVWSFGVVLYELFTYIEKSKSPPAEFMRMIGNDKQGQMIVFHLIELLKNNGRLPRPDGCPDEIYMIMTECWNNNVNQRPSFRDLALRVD
Chain of JAK1 (P23458 875-1153): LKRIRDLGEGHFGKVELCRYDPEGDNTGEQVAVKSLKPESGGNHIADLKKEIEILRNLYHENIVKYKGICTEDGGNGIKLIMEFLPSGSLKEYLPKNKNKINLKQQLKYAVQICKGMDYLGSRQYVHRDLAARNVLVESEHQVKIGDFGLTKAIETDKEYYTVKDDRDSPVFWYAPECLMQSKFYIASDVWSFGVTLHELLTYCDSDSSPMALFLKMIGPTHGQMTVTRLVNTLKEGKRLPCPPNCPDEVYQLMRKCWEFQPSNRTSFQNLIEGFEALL

For `CCC1(n2nc(Nc3ccc(C(=O)N4[C@@H](C)COC[C@@H]4C)c(C)c3)c3c(=O)[nH]ccc32)CCN(C(=O)OC(C)(C)C)CC1` (single isomer, unassigned) [Example 2-19, tert-butyl 4-(3-(4-((3S,5S or 3R,5R)-3,5-dimethylmorpholine-4-carbonyl)-3-methylphenylamino)-4-oxo-4,5-dihydropyrazolo[4,3-c]pyridin-1-yl)-4-ethylpiperidine-1-carboxylate], the concentration for half-maximal inhibition (IC50) at JAK1 came out at 0.85 nM.
With `CCC1(n2nc(Nc3ccc(C(=O)N4[C@H](C)COC[C@H]4C)c(C)c3)c3c(=O)[nH]ccc32)CCN(C(=O)OC(C)(C)C)CC1` (single isomer, unassigned) [Example 2-20, tert-butyl 4-(3-(4-((3R,5R or 3S,5S)-3,5-dimethylmorpholine-4-carbonyl)-3-methylphenylamino)-4-oxo-4,5-dihydropyrazolo[4,3-c]pyridin-1-yl)-4-ethylpiperidine-1-carboxylate], at JAK1, the IC50 worked out at 0.79 nM.
Take `CCC1(n2nc(Nc3ccc([C@@]4(C(F)(F)F)CCCN4)cc3)c3c(=O)[nH]ccc32)CCN(C(=O)OC(C)(C)C)CC1` (single isomer, unassigned) [Example 2-34, (R or S)-tert-butyl 4-ethyl-4-(4-oxo-3-(4-(2-(trifluoromethyl)pyrrolidin-2-yl)phenylamino)-4,5-dihydropyrazolo[4,3-c]pyridin-1-yl) piperidine-1-carboxylate]: the IC50 on JAK2 and at JAK1 was 2.5 nM in each case.
Consider `CCC1(n2nc(Nc3ccc([C@]4(C(F)(F)F)CCCN4)cc3)c3c(=O)[nH]ccc32)CCN(C(=O)OC(C)(C)C)CC1` (single isomer, unassigned) [Example 2-35, (S or R)-tert-butyl 4-ethyl-4-(4-oxo-3-(4-(2-(trifluoromethyl)pyrrolidin-2-yl)phenylamino)-4,5-dihydropyrazolo[4,3-c]pyridin-1-yl) piperidine-1-carboxylate], for which the IC50 is 3.55 nM at JAK2 and 2.82 nM on JAK1.
Consider `CCC1(n2nc(Nc3ccc(S(=O)(=O)N4CCC[C@@H]4C)cc3)c3c(=O)[nH]ccc32)CCN(C(=O)OC(C)(C)C)CC1` (single isomer, unassigned) [Example 2-38, (S or R)-tert-butyl 4-ethyl-4-(3-(4-(2-methylpyrrolidin-1-ylsulfonyl)phenylamino)-4-oxo-4,5-dihydropyrazolo[4,3-c]pyridin-1-yl) piperidine-1-carboxylate], for which the IC50 on JAK1 worked out at 2.38 nM.
`CCC1(n2nc(Nc3ccc(S(=O)(=O)N4CCC[C@H]4C)cc3)c3c(=O)[nH]ccc32)CCN(C(=O)OC(C)(C)C)CC1` (single isomer, unassigned) [Example 2-39, (R or S)-tert-butyl 4-ethyl-4-(3-(4-(2-methylpyrrolidin-1-ylsulfonyl)phenylamino)-4-oxo-4,5-dihydropyrazolo[4,3-c]pyridin-1-yl) piperidine-1-carboxylate]: the IC50 at JAK1 turned out to be 2.13 nM.
Consider `CCC1(n2nc(Nc3ccc(C(=O)N4CCOCC(C)C4)c(C)c3)c3c(=O)[nH]ccc32)CCN(C(=O)OC(C)(C)C)CC1` (single isomer, unassigned) [Example 3-19, tert-butyl 4-ethyl-4-[3-({3-methyl-4-[(6R or 6S-methyl-1,4-oxazepan-4-yl)carbonyl]phenyl}amino)-4-oxo-4,5-dihydro-1H-pyrazolo [4,3-c]pyridin-1-yl] piperidine-1-carboxylate], for which the IC50 on JAK2 was 0.89 nM; at JAK1, 1.23 nM.
Take `CCC1(n2nc(Nc3ccc(C(=O)N4CCOCC(C)C4)c(C)c3)c3c(=O)[nH]ccc32)CCN(C(=O)OC(C)(C)C)CC1` (single isomer, unassigned) [Example 3-20, tert-butyl 4-ethyl-4-[3-({3-methyl-4-[(6R or 6S-methyl-1,4-oxazepan-4-yl)carbonyl]phenyl}amino)-4-oxo-4,5-dihydro-1H-pyrazolo[4,3-c]pyridin-1-yl] piperidine-1-carboxylate]: the IC50 on JAK2 turned out to be 0.53 nM; on JAK1 it was 0.99 nM.
As for `CCC1(n2nc(Nc3ccc(C(=O)N4CCCOC(C)C4)c(C)c3)c3c(=O)[nH]ccc32)CCN(C(=O)OC(C)(C)C)CC1` (single isomer, unassigned) [Example 3-22, tert-butyl 4-ethyl-4-[3-({3R or 3S-methyl-4-[(2-methyl-1,4-oxazepan-4-yl)carbonyl]phenyl}amino)-4-oxo-4,5-dihydro-1H-pyrazolo [4,3-c]pyridin-1-yl] piperidine-1-carboxylate], the IC50 on JAK2 came out at 0.87 nM.
In the case of `CCC1(n2nc(Nc3ccc(C(=O)N4CCCOC(C)C4)c(C)c3)c3c(=O)[nH]ccc32)CCN(C(=O)OC(C)(C)C)CC1` (single isomer, unassigned) [Example 3-23, tert-butyl 4-ethyl-4-[3-({3R or 3S-methyl-4-[(2-methyl-1,4-oxazepan-4-yl)carbonyl]phenyl}amino)-4-oxo-4,5-dihydro-1H-pyrazolo [4,3-c]pyridin-1-yl] piperidine-1-carboxylate], the IC50 on JAK2 was 0.7 nM.
Take `CCC1(n2nc(Nc3ccc(S(=O)(=O)N(C)C)cc3)c3c(=O)[nH]ccc32)CCN(C(=O)OC(C)(C)C)CC1` [Example 1-1, tert-butyl 4-(3-(4-(N,N-dimethylsulfamoyl)phenylamino)-4-oxo-4,5-dihydropyrazolo[4,3-c]pyridin-1-yl)-4-ethylpiperidine-1-carboxylate]: the figures for the IC50 at JAK2 and on JAK1 were 0.4 nM and 0.2 nM, respectively.
As for `CCC1(n2nc(Nc3ccc4c(c3)CN(C(C)(C)C)S4(=O)=O)c3c(=O)[nH]ccc32)CCN(C(=O)OC(C)(C)C)CC1` [Example 1-2], the IC50 amounted to 3.4 nM on JAK2 and 2.86 nM at JAK1.
In the case of `CCC1(n2nc(Nc3ccc(S(C)(=O)=O)cc3)c3c(=O)[nH]ccc32)CCN(C(=O)OC(C)(C)C)CC1` [Example 1-3, tert-butyl 4-ethyl-4-(3-(4-(methylsulfonyl)phenyl-amino)-4-oxo-4,5-dihydropyrazolo[4,3-c]pyridin-1-yl)piperidine-1-carboxylate], the IC50 at JAK2 is 0.64 nM; at JAK1, 0.12 nM.
As for `CCC1(n2nc(Nc3ccc(C(=O)N4CC5CCC(C4)O5)c(C)c3)c3c(=O)[nH]ccc32)CCN(C(=O)OC(C)(C)C)CC1` [Example 2-1, tert-butyl 4-(3-((4-(8-oxa-3-azabicyclo[3.2.1]octane-3-carbonyl)-3-methylphenyl)amino)-4-oxo-4,5-dihydro-1H-pyrazolo[4,3-c]pyridin-1-yl)-4-ethylpiperidine-1-carboxylate], the IC50 on JAK2 was found to be 0.49 nM; at JAK1 it was 0.47 nM.
For `CCC1(n2nc(Nc3ccc4c(c3)CN(C3(C)CCC(F)(F)CC3)C4=O)c3c(=O)[nH]ccc32)CCN(C(=O)OC(C)(C)C)CC1` [Example 2-2, tert-butyl 4-(3-(2-(4,4-difluoro-1-methylcyclohexyl)-1-oxoisoindolin-5-ylamino)-4-oxo-4,5-dihydropyrazolo[4,3-c]pyridin-1-yl)-4-ethylpiperidine-1-carboxylate], the IC50 at JAK2 came to 3.16 nM; on JAK1 it was 3.21 nM.
On to `CCC1(n2nc(Nc3ccc(C4CCN(CC(F)(F)F)CC4)cc3)c3c(=O)[nH]ccc32)CCN(C(=O)OC(C)(C)C)CC1` [Example 2-3, tert-butyl 4-ethyl-4-(4-oxo-3-(4-(1-(2,2,2-trifluoroethyl)piperidin-4-yl)phenylamino)-4,5-dihydropyrazolo [4,3-c]pyridin-1-yl) piperidine-1-carboxylate], for which the IC50 on JAK2 is 71.3 nM; at JAK1, 10.2 nM.
Turning to `CCC1(n2nc(Nc3ccc(C4CCN(C)CC4)cc3)c3c(=O)[nH]ccc32)CCN(C(=O)OC(C)(C)C)CC1` [Example 2-4, tert-butyl 4-ethyl-4-(3-(4-(1-methylpiperidin-4-yl)phenylamino)-4-oxo-4,5-dihydropyrazolo[4,3-c]pyridin-1-yl) piperidine-1-carboxylate], the IC50 at JAK2 was determined as 0.56 nM; on JAK1 it was 0.37 nM.
As for `CCC1(n2nc(Nc3ccc4c(c3)CN(C3CCOCC3)S4(=O)=O)c3c(=O)[nH]ccc32)CCN(C(=O)OC(C)(C)C)CC1` [Example 2-5, tert-butyl 4-ethyl-4-(3-{[2-(oxan-4-yl)-1,1-dioxo-2,3-dihydro-1,2-benzothiazol-5-yl]amino}-4-oxo-1H,4H,5H-pyrazolo [4,3-c]pyridin-1-yl) piperidine-1-carboxylate], the IC50 at JAK2 turned out to be 0.6 nM; on JAK1 it was 0.54 nM.
For the compound `CCC1(n2nc(Nc3ccc(C(=O)N4[C@H](C)COC[C@@H]4C)c(C)c3)c3c(=O)[nH]ccc32)CCN(C(=O)OC(C)(C)C)CC1` [Example 2-18, tert-butyl 4-(3-(4-((3S,5R)-3,5-dimethylmorpholine-4-carbonyl)-3-methylphenylamino)-4-oxo-2,3,4,5-tetrahydropyrazolo[4,3-c]pyridin-1-yl)-4-ethylpiperidine-1-carboxylate], the IC50 at JAK1 was determined as 0.61 nM.
